The values below come from ChEMBL document CHEMBL5291721, “A preclinical secondary pharmacology resource illuminates target-adverse drug reaction associations of marketed drugs” (Nat Commun, 2023).

Test [1] has as its target T1, 5-hydroxytryptamine receptor 2B (Homo sapiens, UniProt P41595). It counts as functional, cell-based.
For test [2], the target named is T2, Alpha-1A adrenergic receptor (Homo sapiens, UniProt P35348).
T2 sequence (P35348 whole entry): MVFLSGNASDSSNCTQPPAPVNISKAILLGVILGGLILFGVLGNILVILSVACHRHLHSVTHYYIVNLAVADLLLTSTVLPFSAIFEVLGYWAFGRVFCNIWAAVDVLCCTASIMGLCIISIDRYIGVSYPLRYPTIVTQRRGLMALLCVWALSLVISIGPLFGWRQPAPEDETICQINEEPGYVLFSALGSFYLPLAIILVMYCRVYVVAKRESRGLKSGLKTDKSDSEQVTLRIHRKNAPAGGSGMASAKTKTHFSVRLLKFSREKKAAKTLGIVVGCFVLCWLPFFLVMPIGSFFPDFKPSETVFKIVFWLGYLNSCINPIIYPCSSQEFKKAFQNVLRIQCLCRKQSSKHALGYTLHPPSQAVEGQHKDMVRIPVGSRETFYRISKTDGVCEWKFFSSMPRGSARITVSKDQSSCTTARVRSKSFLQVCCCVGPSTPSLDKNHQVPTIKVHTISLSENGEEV
It counts as functional, cell-based.

The target of test [3] is T3, 5-hydroxytryptamine receptor 2C (Homo sapiens, UniProt P28335).
T3 sequence (P28335 whole entry): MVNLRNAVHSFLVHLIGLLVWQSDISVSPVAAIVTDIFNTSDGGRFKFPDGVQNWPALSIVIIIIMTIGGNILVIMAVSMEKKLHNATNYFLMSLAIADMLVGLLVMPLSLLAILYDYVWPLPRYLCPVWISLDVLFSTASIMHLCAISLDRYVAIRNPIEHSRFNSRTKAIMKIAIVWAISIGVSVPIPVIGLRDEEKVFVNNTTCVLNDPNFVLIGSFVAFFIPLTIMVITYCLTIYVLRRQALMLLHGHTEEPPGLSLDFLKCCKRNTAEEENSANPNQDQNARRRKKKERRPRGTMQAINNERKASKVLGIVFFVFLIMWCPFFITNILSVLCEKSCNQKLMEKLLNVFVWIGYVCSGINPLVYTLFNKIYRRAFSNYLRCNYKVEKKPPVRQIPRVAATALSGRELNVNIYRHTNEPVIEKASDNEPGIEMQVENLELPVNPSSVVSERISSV

The target of test [4] is T4, 5-hydroxytryptamine receptor 1A (Homo sapiens, UniProt P08908).
T4 sequence (P08908 whole entry): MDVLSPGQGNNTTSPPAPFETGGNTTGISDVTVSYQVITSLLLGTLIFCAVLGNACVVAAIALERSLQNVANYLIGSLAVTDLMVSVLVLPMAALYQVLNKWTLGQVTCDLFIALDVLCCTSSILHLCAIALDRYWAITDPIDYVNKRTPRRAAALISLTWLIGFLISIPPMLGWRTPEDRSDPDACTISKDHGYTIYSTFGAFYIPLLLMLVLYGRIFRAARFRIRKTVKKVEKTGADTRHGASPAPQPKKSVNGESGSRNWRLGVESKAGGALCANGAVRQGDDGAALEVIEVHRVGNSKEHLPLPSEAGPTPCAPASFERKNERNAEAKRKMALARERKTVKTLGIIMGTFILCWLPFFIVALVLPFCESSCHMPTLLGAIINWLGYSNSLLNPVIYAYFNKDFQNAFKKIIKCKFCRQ
Type of test: functional, cell-based.

Test [5] deals with T2, Alpha-1A adrenergic receptor. Type of test: functional, cell-based. This is another data set of the same source.
For test [6], the target named is T1, 5-hydroxytryptamine receptor 2B. It counts as functional, cell-based. The source holds these as a separate data set.
The target of test [7] is T5, Alpha-2A adrenergic receptor (Homo sapiens, UniProt P08913).
T5 sequence (P08913 whole entry): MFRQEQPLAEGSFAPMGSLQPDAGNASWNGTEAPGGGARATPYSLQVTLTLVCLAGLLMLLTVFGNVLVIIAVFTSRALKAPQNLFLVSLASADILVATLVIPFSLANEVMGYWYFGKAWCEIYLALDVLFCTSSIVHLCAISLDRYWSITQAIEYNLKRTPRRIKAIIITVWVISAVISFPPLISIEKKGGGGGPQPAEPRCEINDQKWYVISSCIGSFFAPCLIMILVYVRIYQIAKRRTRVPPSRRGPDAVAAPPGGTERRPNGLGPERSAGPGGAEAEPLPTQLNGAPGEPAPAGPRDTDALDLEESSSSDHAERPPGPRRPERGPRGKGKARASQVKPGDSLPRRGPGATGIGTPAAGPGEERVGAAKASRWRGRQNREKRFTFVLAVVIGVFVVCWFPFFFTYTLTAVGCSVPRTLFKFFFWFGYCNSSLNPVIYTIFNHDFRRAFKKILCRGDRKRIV
Type of test: functional, cell-based.

For test [8], the target named is T1, 5-hydroxytryptamine receptor 2B. Type of test: functional, cell-based. The source holds these as a separate data set.
The target in test [9] is T6, Alpha-2C adrenergic receptor (Homo sapiens, UniProt P18825).
T6 sequence (P18825 whole entry): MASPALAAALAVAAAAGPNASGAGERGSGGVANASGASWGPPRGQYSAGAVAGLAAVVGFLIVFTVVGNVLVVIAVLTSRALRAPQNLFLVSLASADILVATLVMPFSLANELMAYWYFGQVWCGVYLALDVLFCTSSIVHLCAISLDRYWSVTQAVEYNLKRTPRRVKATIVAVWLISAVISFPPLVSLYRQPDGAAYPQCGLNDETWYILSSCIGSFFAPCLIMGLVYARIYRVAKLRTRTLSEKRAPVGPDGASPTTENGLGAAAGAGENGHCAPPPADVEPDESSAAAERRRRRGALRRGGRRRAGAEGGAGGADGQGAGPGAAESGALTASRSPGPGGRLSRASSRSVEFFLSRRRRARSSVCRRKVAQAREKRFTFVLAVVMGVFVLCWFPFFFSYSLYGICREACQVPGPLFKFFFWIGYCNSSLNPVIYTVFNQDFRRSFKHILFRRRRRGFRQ
Type of test: functional.

In another test the target is Cannabinoid receptor 1 (Homo sapiens, UniProt P21554). Type of test: functional, cell-based.
Chain of Cannabinoid receptor 1 (P21554 whole entry): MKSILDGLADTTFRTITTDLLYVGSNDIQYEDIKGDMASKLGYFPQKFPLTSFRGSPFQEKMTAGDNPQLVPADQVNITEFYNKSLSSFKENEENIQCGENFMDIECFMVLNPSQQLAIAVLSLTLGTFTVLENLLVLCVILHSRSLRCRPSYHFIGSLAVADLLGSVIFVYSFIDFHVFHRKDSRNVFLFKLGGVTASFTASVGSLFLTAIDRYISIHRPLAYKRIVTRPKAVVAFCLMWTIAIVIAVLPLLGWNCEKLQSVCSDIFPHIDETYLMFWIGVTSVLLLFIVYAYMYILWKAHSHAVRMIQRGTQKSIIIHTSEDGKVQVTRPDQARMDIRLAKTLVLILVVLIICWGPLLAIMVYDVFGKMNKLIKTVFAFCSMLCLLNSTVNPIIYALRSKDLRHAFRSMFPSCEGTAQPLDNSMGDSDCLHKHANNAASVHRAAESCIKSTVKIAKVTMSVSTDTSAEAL
Also: assay procedure not described here.

T1 sequence (P41595 whole entry): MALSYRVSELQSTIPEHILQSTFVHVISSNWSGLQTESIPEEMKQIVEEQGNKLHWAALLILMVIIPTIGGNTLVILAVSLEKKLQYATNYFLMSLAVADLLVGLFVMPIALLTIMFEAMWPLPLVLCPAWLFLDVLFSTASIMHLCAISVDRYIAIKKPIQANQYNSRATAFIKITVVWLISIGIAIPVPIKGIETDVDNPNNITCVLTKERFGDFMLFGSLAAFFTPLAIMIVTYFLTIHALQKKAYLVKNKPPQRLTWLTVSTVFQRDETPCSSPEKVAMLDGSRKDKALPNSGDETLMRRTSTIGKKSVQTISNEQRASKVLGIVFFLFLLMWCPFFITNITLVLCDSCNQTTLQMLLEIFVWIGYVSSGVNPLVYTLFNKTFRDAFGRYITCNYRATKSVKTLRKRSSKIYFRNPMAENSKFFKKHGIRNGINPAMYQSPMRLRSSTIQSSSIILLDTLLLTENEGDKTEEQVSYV

The term AC50 denotes the concentration giving half of the maximal activity seen. Consider `CC(=O)OC(C)C[N+](C)(C)C` (stereo not drawn) [METHACHOLINE], for which the AC50 in test [1] and in test [2] was greater than 30 µM each time.

With `NC(=O)c1cccc2cn(-c3ccc([C@@H]4CCCNC4)cc3)nc12` [NIRAPARIB], the AC50 in test [1] and in test [2] was greater than 30 µM each time.

In the case of `O=C(O)CCCN1CCC(O[C@@H](c2ccc(Cl)cc2)c2ccccn2)CC1` [BEPOTASTINE], the AC50 in test [1] and in test [2] was greater than 30 µM throughout.

On to `NS(=O)(=O)c1cc2c(cc1Cl)NC(CC1CCCC1)NS2(=O)=O` (stereo not drawn) [CYCLOPENTHIAZIDE], for which the half-maximal activity concentration (AC50) in [3], in [4], in test [5], in test [1], in test [6] and in test [7] was greater than 30 µM throughout. Besides, the half-maximal activity concentration (AC50) (in test [8]; in test [9]; at Cannabinoid receptor 1) was greater than 30 µM in each case.

`Cn1cc[nH]c1=S` [METHIMAZOLE]: the half-maximal activity concentration (AC50) in [1] and in [2] was greater than 30 µM each time.

On to `CCC(Cc1c(I)cc(I)c(N)c1I)C(=O)O` (stereo not drawn) [IOPANOIC ACID], for which the half-maximal activity concentration (AC50) in test [1] and in test [2] was greater than 30 µM each time.

For `NCc1ccccc1CC(=O)N[C@@H]1C(=O)N2C(C(=O)O)=C(CSc3nnnn3CC(=O)O)CS[C@H]12` [CEFORANIDE], the half-maximal activity concentration (AC50) in test [1] and in [2] was greater than 30 µM throughout.

As for `Oc1c(I)cc(I)c2cccnc12` [IODOQUINOL], the concentration at half-maximal activity (AC50) in test [1] and in [2] was greater than 30 µM in each case.

Turning to `O=C1NCC2(CCN(CCc3ccccc3)CC2)O1` [FENSPIRIDE], the AC50 in test [1] and in [2] was greater than 30 µM in each case.

Turning to `CC/C=C\C/C=C\C/C=C\C/C=C\C/C=C\CCCC(=O)O` [ICOSAPENT], the AC50 in test [1] and in test [2] was greater than 30 µM each time.

For the molecule `C[C@@H]1C[C@H]2[C@@H]3C[C@H](F)C4=CC(=O)C(Cl)=C[C@]4(C)[C@@]3(F)[C@@H](O)C[C@]2(C)[C@@]1(O)C(=O)CO` [HALOMETASONE], the half-maximal activity concentration (AC50) in test [1] and in test [2] was greater than 30 µM each time.

Turning to `CN1CCN(C(c2ccccc2)c2ccccc2)CC1` [CYCLIZINE], the half-maximal activity concentration (AC50) in test [1] and in test [2] was greater than 30 µM in each case.

Consider `CC(C(=O)O)c1ccc2c(c1)Cc1cccnc1O2` (stereo not drawn) [PRANOPROFEN], for which the AC50 in test [1] and in test [2] was greater than 30 µM each time.

In the case of `O=[N+]([O-])c1cncn1CCN1CCOCC1` [NIMORAZOLE], the half-maximal activity concentration (AC50) in [1] and in test [2] was greater than 30 µM each time.

As to `CN1CCC2=C(C1)c1ccccc1Cc1ccccc12` [SETIPTILINE], the AC50 in test [1] and in [2] was greater than 30 µM in each case.

For `CCCCN(CCCC)CCCOC(=O)c1ccc(N)cc1` [BUTACAINE], the AC50 in [1] and in [2] was greater than 30 µM in each case.

Consider `Nc1nc(-n2cc(C(=O)O)c(=O)c3cc(F)c(N4CC(O)C4)c(Cl)c32)c(F)cc1F` [DELAFLOXACIN], for which the AC50 in test [1] and in test [2] was greater than 30 µM each time.

`Cc1c(O)cccc1C(=O)N[C@@H](CSc1ccccc1)[C@H](O)CN1C[C@H]2CCCC[C@H]2C[C@H]1C(=O)NC(C)(C)C`: the half-maximal activity concentration (AC50) in test [1] and in test [2] was greater than 30 µM each time.

Consider `Nc1ccc(/N=N/c2ccccc2)c(N)n1` [PHENAZOPYRIDINE], for which the AC50 in test [3] is 1.91 µM; in test [5], greater than 30 µM; in test [1], greater than 30 µM; in test [6], 24 µM; in test [7] it was greater than 30 µM; in test [8], greater than 30 µM. Besides, the AC50 is 3.7 µM in test [9] and greater than 30 µM on Cannabinoid receptor 1.

Take `CO/N=C(\C(=O)N[C@@H]1C(=O)N2C(C(=O)OCOC(=O)C(C)(C)C)=C(C)CS[C@H]12)c1csc(N)n1`: the concentration at half-maximal activity (AC50) in [3], in test [4], in test [5], in test [1], in test [6] and in test [7] was greater than 30 µM each time. Besides, the AC50 (in test [8]; in test [9]; on Cannabinoid receptor 1) was greater than 30 µM throughout.

Regarding `COCC1=C(C(=O)OC(C)OC(=O)OC(C)C)N2C(=O)[C@@H](NC(=O)/C(=N\OC)c3csc(N)n3)[C@H]2SC1` (stereo partly drawn) [CEFPODOXIME PROXETIL], the AC50 in [3], in [4], in [5], in test [1], in test [6] and in test [7] was greater than 30 µM in each case. The concentration at half-maximal activity (AC50) (in test [8]; in [9]; at Cannabinoid receptor 1) was greater than 30 µM each time.

As to `CN1C(=O)N(C)C2C1N(C)C(=O)N2C` (stereo not drawn) [MEBICAR], the half-maximal activity concentration (AC50) in test [3], in test [4], in test [5], in test [1], in test [6] and in test [7] was greater than 30 µM throughout. In addition, the results for the half-maximal activity concentration (AC50) (in [9]; on Cannabinoid receptor 1) were 14 µM and greater than 30 µM, respectively.

Consider `O=C(Cn1ccnc1[N+](=O)[O-])NCc1ccccc1` [BENZNIDAZOLE], for which the AC50 in test [3], in [4], in test [5], in test [1], in [6] and in [7] was greater than 30 µM throughout. In addition, the AC50 (in test [8]; in [9]; at Cannabinoid receptor 1) was greater than 30 µM in each case.

In the case of `N/N=c1/cc2c(n[nH]1)CCN(C(=O)c1ccccc1)C2` [ENDRALAZINE], the concentration at half-maximal activity (AC50) in [3], in [4], in test [5], in test [1], in test [6] and in [7] was greater than 30 µM each time. Further, the concentration at half-maximal activity (AC50) (in test [8]; in test [9]; on Cannabinoid receptor 1) was greater than 30 µM each time.

Turning to `C[N+](C)(C)CCOC(N)=O` [CARBAMOYLCHOLINE], the AC50 in [3] is greater than 30 µM; in test [4], 5.95 µM; in test [5], greater than 30 µM; in test [6] it was greater than 30 µM; in test [7], greater than 30 µM; in [8] it was greater than 30 µM. The AC50 in test [9] is greater than 10 µM; on Cannabinoid receptor 1 it was greater than 30 µM.
